13 molecules from PubChem BioAssay (NCI) can be followed below.

Test in all cases: NCI tumour cell line growth inhibition, 48 h
Assay [1] deals with BT-549 breast.
Assay [2] has as its system HL-60(TB) leukemia.
In assay [3] the test system is K-562 leukemia.
Assay [4] concerns LOX IMVI melanoma.
Assay [5] deals with M14 melanoma.
In assay [6] the test system is NCI-H23 lung.
The test system of assay [7] is PC-3 prostate.
In assay [8] the test system is SF-539 CNS.
Assay [9] deals with SK-MEL-2 melanoma.
The subject of assay [10] is UACC-257 melanoma.

The structures appear in SMILES notation.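 Interpolation was linear, between the two tested concentrations surrounding the appropriate level; five concentrations were tested over 48 hours in 96-well plates. GI50: concentration for 50% inhibition of growth. TGI marks complete inhibition of growth.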

For the molecule `COc1ccc2[nH]c(=O)c3c4ccccc4cn3c2c1`, the GI50 in [1] is 7.3 µM; in [2], 0.186 µM; in [3] it was 0.276 µM; in [4], 0.776 µM; in [5], 0.494 µM; in [6], 0.639 µM. Moreover, the GI50 is 0.429 µM in assay [7], 0.657 µM in [8], 1.35 µM in assay [9] and 2.67 µM in [10]. Moreover, the TGI in assay [1] came out at 20.9 µM; in assay [2], 0.548 µM; in assay [3] it was 1.33 µM; in assay [4], 2.11 µM; in [5] it was 1.92 µM; in assay [6], 6.59 µM. The TGI is 4.08 µM in [7], 2.53 µM in assay [8], 7.66 µM in assay [9] and 11.1 µM in [10].
In the case of `CC[C@]12CCCN3CCc4c(n(c5ccccc45)C(=O)C1)[C@@H]32`, the TGI in [1] was above 100 µM; in assay [2], 8.51 µM; in [3], above 100 µM; in assay [4], above 100 µM; in assay [5] it was above 65.5 µM; in [6] it was above 100 µM. The TGI is above 100 µM in [7], above 51.9 µM in assay [8], above 100 µM in assay [9] and above 100 µM in assay [10].
Regarding `C/C(=N\NC(=O)c1sc(=S)n(C)c1N)c1cc2ccccc2o1`, the GI50 in assay [1] was 18.3 µM; in assay [2] it was 26 µM; in assay [3], 6.38 µM; in [4], 7.05 µM; in assay [5], 14.7 µM; in assay [6], 17.7 µM. The GI50 in assay [7] is 9.73 µM; in [8], 12.9 µM; in [9], 14 µM; in assay [10], 12.8 µM. Besides, the TGI in [1] is 41.8 µM; in [2], above 100 µM; in [3], 30.8 µM; in assay [4], 20.1 µM; in assay [5], 40.5 µM; in assay [6], 58.8 µM. The TGI in assay [7] was 32.7 µM; in [8] it was 25.9 µM; in [9], 37 µM; in assay [10] it was 33.4 µM.
As for `Nc1ccc2c(c1)C(=O)C(=O)c1c-2nc2ccccn12`, the GI50 in assay [1] was 1.49 µM; in assay [2], 1.96 µM; in assay [3], 1.09 µM; in assay [4], 0.327 µM; in [5], 0.281 µM; in assay [6], 0.576 µM. In addition, the GI50 in assay [7] is 1.78 µM; in [8] it was 1.66 µM; in assay [9] it was 1.68 µM; in assay [10], 1.08 µM. In addition, the TGI is 2.82 µM in assay [1]; 5.46 µM in assay [2]; 3.88 µM in assay [3]; 1.33 µM in assay [4]; 0.741 µM in [5]; 3.05 µM in [6]. Moreover, the TGI in assay [7] worked out at 10.5 µM; in assay [8], 3.03 µM; in assay [9] it was 3.7 µM; in assay [10], 2.28 µM.
Take `O=C(Nc1ccc(Cl)c(Cl)c1)c1cccc(NC2=C(Cl)C(=O)N(Cc3ccccc3)C2=O)c1`: the GI50 was 17.3 µM in assay [1]; 45.8 µM in [2]; 11.5 µM in [3]; 27 µM in assay [4]; 66 µM in assay [5]; 37.1 µM in assay [6]. In addition, the GI50 in assay [7] is 27.2 µM; in assay [8], 7.75 µM; in [9], 23.5 µM; in [10], 41.1 µM. The TGI in [1] was 87.1 µM; in assay [2] it was above 100 µM; in assay [3], above 100 µM; in assay [4] it was above 100 µM; in assay [5] it was above 100 µM; in assay [6] it was above 100 µM. Moreover, the TGI in assay [7] was above 100 µM; in assay [8] it was 38.2 µM; in assay [9] it was 56.5 µM; in [10], above 100 µM.
On to `COc1cc(NS(C)(=O)=O)ccc1Nc1c2ccc([N+](=O)[O-])cc2nc2c(C)cccc12`, for which the GI50 in assay [1] was 1.45 µM; in [2] it was 0.302 µM; in [3] it was 0.801 µM; in assay [4], 0.15 µM; in assay [5], 0.228 µM; in [6], 0.567 µM. Besides, the GI50 in assay [7] is 1.1 µM; in assay [8], 0.241 µM; in assay [9] it was 4.07 µM; in assay [10], 1.29 µM. The TGI in assay [1] was 7.45 µM; in assay [2], 3.57 µM; in assay [3], 9.89 µM; in [4] it was 2.38 µM; in [5], 11.2 µM; in assay [6], 9.26 µM. For the same molecule, the TGI turned out to be 9.1 µM in assay [7], 1.97 µM in [8], 16.1 µM in [9] and 14.7 µM in [10].
Turning to `O=C[C@@H](CO)O[C@H](C=O)c1c[nH]c(=O)[nH]c1=O`, the TGI in [1] is 286 µM; in [2], 376 µM; in assay [3] it was 818 µM; in [4], 886 µM; in assay [5], 527 µM; in assay [6], 539 µM. For the same molecule, the TGI in assay [7] was 790 µM; in assay [8], 428 µM; in assay [9], 3680 µM; in [10] it was 657 µM.
As to `CCc1nc(N)nc(N)c1-c1ccc(NCCN)c([N+](=O)[O-])c1`, the TGI was above 100 µM in assay [1]; above 100 µM in [2]; above 100 µM in [3]; above 100 µM in [4]; 75.5 µM in [5]; above 100 µM in [6]. Further, the TGI is above 100 µM in assay [7], above 100 µM in [8], above 100 µM in [9] and 72.9 µM in [10].
`COC(=O)[C@@]12C(=O)C=CC(=O)[C@@H]1C1C(=CC2COC(C)=O)O[C@@H]2OC3(CCCCC3)O[C@H]12` (some centres undefined): the TGI in assay [1] is 26 µM; in assay [2] it was above 25.6 µM; in assay [3], 43.8 µM; in assay [4], 24.6 µM; in assay [5] it was 30.1 µM; in assay [6] it was 35.9 µM. The TGI in assay [7] turned out to be 25.3 µM; in [8] it was 24.7 µM; in assay [9], 37.3 µM; in assay [10], 30.3 µM.
With `CC(=O)N[C@@H](Cc1ccc(OP(=O)(O)O)cc1)C(=O)N[C@H]1CCC(=O)N2CCC[C@@H](C(=O)NCc3ccc(Cl)cc3)N2C1=O`, the GI50 in [1], in assay [2], in [3], in assay [4], in assay [5] and in assay [6] was above 25 µM throughout. Also, the GI50 in [7], in assay [8], in [9] and in [10] was above 25 µM throughout. Further, the TGI in assay [1], in assay [2], in assay [3], in assay [4], in [5] and in assay [6] was above 25 µM in each case. Also, the TGI in assay [7], in assay [8], in assay [9] and in assay [10] was above 25 µM throughout.
With `COc1ccc2oc(=O)cc(C(c3ccc[nH]3)c3ccc[nH]3)c2c1`, the GI50 in [1] was below 0.0505 µM; in assay [2] it was below 0.0502 µM; in assay [3], 0.118 µM; in [4], 0.104 µM; in assay [5] it was 0.0837 µM; in [6] it was 0.11 µM. Also, the GI50 in assay [7] is 0.108 µM; in [8], 0.0937 µM; in [9], 0.616 µM; in assay [10], 0.468 µM. In addition, the TGI in assay [1] turned out to be 0.389 µM; in assay [3] it was 20.8 µM; in assay [4] it was 7.57 µM; in assay [5], 0.191 µM; in [6] it was 14 µM; in assay [7], 15.5 µM. Also, the TGI in [8] amounted to 0.451 µM; in assay [9], 13.2 µM; in assay [10] it was 18 µM.
Consider `CC1(C)N=C(N)N=C(N)N1c1cccc(CCCCc2cccc(S(=O)(=O)F)c2)c1`, for which the GI50 is 0.973 µM in assay [1]; 1.95 µM in assay [2]; 0.657 µM in [3]; 0.424 µM in assay [4]; 2.92 µM in assay [5]; 2.39 µM in assay [6]. Further, the GI50 in [7] was 0.157 µM; in assay [8] it was 0.773 µM; in [9] it was 2.73 µM; in assay [10], 2.79 µM. The TGI is above 43.1 µM in [1]; 47.8 µM in [2]; above 100 µM in assay [3]; above 100 µM in [4]; above 100 µM in assay [5]; above 100 µM in assay [6]. Besides, the TGI in assay [7] was above 100 µM; in assay [8], 18.8 µM; in assay [9], above 58.5 µM; in [10] it was 36.6 µM.
Regarding `O=[N+]([O-])c1ccc(S(=O)(=O)Cc2ccccc2)c([N+](=O)[O-])c1`, the TGI in assay [1] was 5.12 µM; in assay [2], 4.03 µM; in [3], above 100 µM; in [4] it was 3.39 µM; in assay [5], 3.37 µM; in assay [6], 3.52 µM. For the same molecule, the TGI in assay [7] is 3.45 µM; in assay [8], 3.8 µM; in assay [9] it was 8.62 µM; in assay [10], 3.05 µM.
